In publication PMC10178848, “Modulating fast skeletal muscle contraction protects skeletal muscle in animal models of Duchenne muscular dystrophy” (The Journal of Clinical Investigation, 2023):

Legend:
WT or mdx mice = experiment: Forelimb grip strength; format: in vivo, mouse; conditions: single doses up to 10 mg/kg, 4 hours after oral administration
Description: Prior to in vivo assessments, mice were dosed PO after a 2-hour fast with 10 mL/Kg suspensions. Grip strength and rotarod assessments were performed masked, 4 hours after dosing using published protocols ([66], [67]). Grip strength was performed with a Columbus Instruments Rodent Force Meter. Forepaw strength represented the average of 5 trials with 30-second rest periods, normalized by BW. Rotarod endurance was performed with a Columbus Instruments RotaMax. Mice were placed on the device drum at 1 rpm, which accelerated 1 rpm every 3 seconds to 12 rpm and a maximal time of 500 seconds. This was repeated 3 times with a 3-minute rest and total time reported. Voluntary wheel running performance was assessed with a customized system. Timestamped RPMs were measured 24 hours per day by infrared sensors, and a custom software calculated distance. Whole-body EBD was visualized after intravenous administration ([35]). EBD in PBS at 10 mg/mL was sterile filtered, and 50 μL/10 g BW was injected via tail vein. After 24 hours, animals were sacrificed, skin was removed and fixed in 4% formalin for 24 hours, and photographed using a Leica/Lumix camera.

mdx mice = experiment: Chronic 8-week dosing in mdx mice (fibrosis, weights, histology); format: in vivo, mouse
Text: C57BL/6 (stock no. 000664), C57BL/10J (stock no. 000665, control for mdx experiments), C57BL/10ScSn-Dmd^mdx/J (mdx, stock no. 001801), and D2.B10 (DBA/2-congenic) Dmd^mdx (DBA/2J mdx, stock no. 013141) mice were from The Jackson Laboratory. Sprague-Dawley rats were purchased from Charles River Laboratories. For ex vivo experiments, mice were 10–16 weeks old. For in situ experiments, mice were 8–14 weeks of age. For in vivo chronic dosing studies, mdx and DBA/2J mdx were 4–5 weeks of age at study start. Dosing was via a 10 mL/kg suspension (1% methyl cellulose, 0.1% Tween 80 in water). For studies in 14-day-old preweaning mice, PO dosing was via syrup suspension (3 mg/kg/d). GRMD were supplied by Texas A&M Department of Veterinary Integrative Biosciences.
For sterile muscle injury, mice were anesthetized with isoflurane and 50 μL cardiotoxin (12 × 10^–6 M, 217503, Millipore) injected in the TA muscle. Muscles 8 days after injury were snap frozen in nitrogen-chilled isopentane. 8 μm cryosections were cut and stained with H&E. For each analysis, more than 10 slides (per condition/group) containing 6 muscle sections/sample were used, and myofibers in the injured area were counted and measured with a Mirax digital scanner and HALO software ([68]). For adult mouse studies, muscles were fixed in 10% formalin and embedded in paraffin for sectioning. Laminin staining (RB-082, Thermo Fisher Scientific) was used to outline fibers, and picrosirius red was used for collagen accumulation. Image analysis was performed using ImarisX64 software (Bitplane AG), and fiber sizing was calculated using minimal Feret’s diameter ([69]). For after weaning juvenile mouse studies, cryosections from soleus muscles were mounted in ProLong antifade mountant with DAPI (Thermo Fisher Scientific). Fiber type, size, and central nucleation were quantified with analysis via SMASH ([70]) and ImageJ (NIH). Antibodies used were mouse anti-MHC2A (1:50, SC-71, Developmental Studies Hybridoma Bank) and mouse anti-eMHC (1:10, BF-45, Developmental Studies Hybridoma Bank).

[1] = system: dystrophic golden retriever (GRMD) dogs; experiment: Habitual activity in GRMD dogs (FitBark); format: in vivo, dog; conditions: 2 mg/kg daily for 4 days, then every other day
Description: Studies were performed in two phases. In the first phase, GRMD (n = 4, female, 7 months old) were dosed PO daily with vehicle for 2 weeks, followed by a suspension of EDG-5506 (3 mg/kg daily for 2 days, then 1 mg/kg daily for 2 weeks) and then with vehicle for 2 weeks. Blood was drawn at regular intervals (2–3 draws during the vehicle baseline, 5–8 draws during the dosing period, and 2 draws during the vehicle washout). In a separate dosing period, the same 4 dogs (10 months old) were administered vehicle for 14 days with regular blood draws (6–9 for each dog across the 14-day period). CK activity (Pointe Scientific, Thermo Fisher Scientific) was measured from plasma. In the second phase, the same 4 dogs (15 months old) were fitted with a collar-bound activity monitor (Fitbark 2, Fitbark Inc.) as described previously ([42]), and baseline activity was recorded for 27 days before daily oral gavage with vehicle for 22 days. Three dogs were then dosed in a similar pattern to phase 1 with EDG-5506 (2 mg/kg for 4 days and then 2 mg/kg every other day for 7 days). The fourth dog was dosed with vehicle over the same period. Dogs were then returned to vehicle for a further 12 days. Average daily activity (“Fitbark points”) and time performing various activities (play, rest, active) were recorded.

ADCK3 = molecular target: T1, ADCK3 (Homo sapiens, UniProt Q8NI60); experiment: KINOMEscan scanEDGE; format: binding; conditions: 20 uM
T1 construct: purchased Eurofins DiscoverX (KINOMEscan; SAFETYscan E/IC50 ELECT)
T1 sequence (Q8NI60 163-647): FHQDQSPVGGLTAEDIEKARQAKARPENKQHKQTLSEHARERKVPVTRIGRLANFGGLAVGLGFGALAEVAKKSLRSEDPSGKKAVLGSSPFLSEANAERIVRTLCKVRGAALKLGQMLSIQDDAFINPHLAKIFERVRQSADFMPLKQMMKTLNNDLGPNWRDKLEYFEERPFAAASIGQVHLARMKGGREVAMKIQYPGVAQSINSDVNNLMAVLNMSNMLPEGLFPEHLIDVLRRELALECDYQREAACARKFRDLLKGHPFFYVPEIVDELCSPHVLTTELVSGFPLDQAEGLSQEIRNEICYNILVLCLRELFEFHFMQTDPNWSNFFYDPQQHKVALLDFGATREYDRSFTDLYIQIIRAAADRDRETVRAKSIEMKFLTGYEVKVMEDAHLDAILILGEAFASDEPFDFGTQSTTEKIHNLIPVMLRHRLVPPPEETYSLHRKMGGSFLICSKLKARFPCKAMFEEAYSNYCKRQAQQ

BMPR2 = molecular target: T2, BMPR2 (Homo sapiens, UniProt Q13873); experiment: KINOMEscan scanEDGE; format: binding; conditions: 20 uM
T2 construct: purchased Eurofins DiscoverX (KINOMEscan; SAFETYscan E/IC50 ELECT)
T2 sequence (Q13873 27-1038): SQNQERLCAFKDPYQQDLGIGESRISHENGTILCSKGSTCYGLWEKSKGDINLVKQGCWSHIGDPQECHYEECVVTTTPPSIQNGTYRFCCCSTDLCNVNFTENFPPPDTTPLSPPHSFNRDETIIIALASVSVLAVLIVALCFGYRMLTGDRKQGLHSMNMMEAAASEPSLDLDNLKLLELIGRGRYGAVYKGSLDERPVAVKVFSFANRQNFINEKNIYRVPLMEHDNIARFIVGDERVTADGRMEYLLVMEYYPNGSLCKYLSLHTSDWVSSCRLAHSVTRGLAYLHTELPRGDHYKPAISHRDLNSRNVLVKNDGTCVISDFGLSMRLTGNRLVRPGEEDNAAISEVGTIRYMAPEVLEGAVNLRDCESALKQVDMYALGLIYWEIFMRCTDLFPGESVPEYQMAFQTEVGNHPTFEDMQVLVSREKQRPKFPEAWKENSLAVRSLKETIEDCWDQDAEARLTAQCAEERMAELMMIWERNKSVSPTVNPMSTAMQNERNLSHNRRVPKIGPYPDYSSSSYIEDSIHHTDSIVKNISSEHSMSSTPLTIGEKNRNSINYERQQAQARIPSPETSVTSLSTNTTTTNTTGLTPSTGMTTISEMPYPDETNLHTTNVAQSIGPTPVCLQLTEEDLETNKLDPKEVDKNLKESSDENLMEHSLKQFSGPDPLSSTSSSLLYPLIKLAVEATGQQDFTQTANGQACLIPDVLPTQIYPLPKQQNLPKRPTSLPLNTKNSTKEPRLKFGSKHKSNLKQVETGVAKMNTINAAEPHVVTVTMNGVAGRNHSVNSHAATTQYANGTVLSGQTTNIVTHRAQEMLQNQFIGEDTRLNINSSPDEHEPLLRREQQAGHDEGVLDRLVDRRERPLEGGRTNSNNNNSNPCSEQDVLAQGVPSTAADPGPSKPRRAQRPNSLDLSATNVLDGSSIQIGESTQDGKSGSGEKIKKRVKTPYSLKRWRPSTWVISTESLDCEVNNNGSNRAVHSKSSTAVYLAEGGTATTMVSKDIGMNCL

CDK3 = molecular target: T3, CDK3 (Homo sapiens, UniProt Q00526); experiment: KINOMEscan scanEDGE; format: binding; conditions: 20 uM
T3 construct: purchased Eurofins DiscoverX (KINOMEscan; SAFETYscan E/IC50 ELECT)
T3 sequence (Q00526 whole entry): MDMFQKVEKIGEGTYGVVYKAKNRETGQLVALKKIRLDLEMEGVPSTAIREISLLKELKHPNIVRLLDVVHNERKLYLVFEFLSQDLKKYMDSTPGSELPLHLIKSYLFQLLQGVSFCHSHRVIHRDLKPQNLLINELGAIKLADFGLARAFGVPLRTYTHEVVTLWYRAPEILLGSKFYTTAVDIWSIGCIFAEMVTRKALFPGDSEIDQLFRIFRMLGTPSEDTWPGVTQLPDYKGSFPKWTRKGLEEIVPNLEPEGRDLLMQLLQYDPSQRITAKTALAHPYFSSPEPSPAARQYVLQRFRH

CDK7 = molecular target: T4, CDK7 (Homo sapiens, UniProt P50613); experiment: KINOMEscan scanEDGE; format: binding; conditions: 20 uM
T4 construct: purchased Eurofins DiscoverX (KINOMEscan; SAFETYscan E/IC50 ELECT)
T4 sequence (P50613 whole entry): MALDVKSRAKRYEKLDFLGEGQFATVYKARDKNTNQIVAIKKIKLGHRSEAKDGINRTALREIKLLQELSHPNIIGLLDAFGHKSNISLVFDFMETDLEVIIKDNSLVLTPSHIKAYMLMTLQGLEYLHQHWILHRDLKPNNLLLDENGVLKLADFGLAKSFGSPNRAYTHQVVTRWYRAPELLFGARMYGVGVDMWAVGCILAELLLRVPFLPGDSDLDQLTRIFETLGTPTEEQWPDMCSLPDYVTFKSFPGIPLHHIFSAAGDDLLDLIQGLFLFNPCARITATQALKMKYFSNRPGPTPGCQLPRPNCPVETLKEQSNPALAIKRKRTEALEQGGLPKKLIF

FAK = molecular target: T5, FAK (Homo sapiens, UniProt Q05397); experiment: KINOMEscan scanEDGE; format: binding; conditions: 20 uM
T5 construct: purchased Eurofins DiscoverX (KINOMEscan; SAFETYscan E/IC50 ELECT)

JNK1 = molecular target: T6, JNK1 (Homo sapiens, UniProt P45983); experiment: KINOMEscan scanEDGE; format: binding; conditions: 20 uM
T6 construct: purchased Eurofins DiscoverX (KINOMEscan; SAFETYscan E/IC50 ELECT)
T6 sequence (P45983 whole entry): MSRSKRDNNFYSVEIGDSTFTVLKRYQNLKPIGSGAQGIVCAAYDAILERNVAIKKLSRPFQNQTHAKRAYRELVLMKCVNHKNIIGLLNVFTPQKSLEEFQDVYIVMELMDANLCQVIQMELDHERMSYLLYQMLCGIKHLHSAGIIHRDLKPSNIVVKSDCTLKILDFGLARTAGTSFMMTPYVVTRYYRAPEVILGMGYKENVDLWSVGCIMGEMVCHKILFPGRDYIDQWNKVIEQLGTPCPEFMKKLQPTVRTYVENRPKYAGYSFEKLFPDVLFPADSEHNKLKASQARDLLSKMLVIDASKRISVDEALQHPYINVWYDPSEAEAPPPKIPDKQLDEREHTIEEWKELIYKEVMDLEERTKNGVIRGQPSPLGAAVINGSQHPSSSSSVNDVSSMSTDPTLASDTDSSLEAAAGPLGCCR

MAP3K4 = molecular target: T7, MAP3K4 (Homo sapiens, UniProt Q9Y6R4); experiment: KINOMEscan scanEDGE; format: binding; conditions: 20 uM
T7 construct: purchased Eurofins DiscoverX (KINOMEscan; SAFETYscan E/IC50 ELECT)
T7 sequence (Q9Y6R4 whole entry): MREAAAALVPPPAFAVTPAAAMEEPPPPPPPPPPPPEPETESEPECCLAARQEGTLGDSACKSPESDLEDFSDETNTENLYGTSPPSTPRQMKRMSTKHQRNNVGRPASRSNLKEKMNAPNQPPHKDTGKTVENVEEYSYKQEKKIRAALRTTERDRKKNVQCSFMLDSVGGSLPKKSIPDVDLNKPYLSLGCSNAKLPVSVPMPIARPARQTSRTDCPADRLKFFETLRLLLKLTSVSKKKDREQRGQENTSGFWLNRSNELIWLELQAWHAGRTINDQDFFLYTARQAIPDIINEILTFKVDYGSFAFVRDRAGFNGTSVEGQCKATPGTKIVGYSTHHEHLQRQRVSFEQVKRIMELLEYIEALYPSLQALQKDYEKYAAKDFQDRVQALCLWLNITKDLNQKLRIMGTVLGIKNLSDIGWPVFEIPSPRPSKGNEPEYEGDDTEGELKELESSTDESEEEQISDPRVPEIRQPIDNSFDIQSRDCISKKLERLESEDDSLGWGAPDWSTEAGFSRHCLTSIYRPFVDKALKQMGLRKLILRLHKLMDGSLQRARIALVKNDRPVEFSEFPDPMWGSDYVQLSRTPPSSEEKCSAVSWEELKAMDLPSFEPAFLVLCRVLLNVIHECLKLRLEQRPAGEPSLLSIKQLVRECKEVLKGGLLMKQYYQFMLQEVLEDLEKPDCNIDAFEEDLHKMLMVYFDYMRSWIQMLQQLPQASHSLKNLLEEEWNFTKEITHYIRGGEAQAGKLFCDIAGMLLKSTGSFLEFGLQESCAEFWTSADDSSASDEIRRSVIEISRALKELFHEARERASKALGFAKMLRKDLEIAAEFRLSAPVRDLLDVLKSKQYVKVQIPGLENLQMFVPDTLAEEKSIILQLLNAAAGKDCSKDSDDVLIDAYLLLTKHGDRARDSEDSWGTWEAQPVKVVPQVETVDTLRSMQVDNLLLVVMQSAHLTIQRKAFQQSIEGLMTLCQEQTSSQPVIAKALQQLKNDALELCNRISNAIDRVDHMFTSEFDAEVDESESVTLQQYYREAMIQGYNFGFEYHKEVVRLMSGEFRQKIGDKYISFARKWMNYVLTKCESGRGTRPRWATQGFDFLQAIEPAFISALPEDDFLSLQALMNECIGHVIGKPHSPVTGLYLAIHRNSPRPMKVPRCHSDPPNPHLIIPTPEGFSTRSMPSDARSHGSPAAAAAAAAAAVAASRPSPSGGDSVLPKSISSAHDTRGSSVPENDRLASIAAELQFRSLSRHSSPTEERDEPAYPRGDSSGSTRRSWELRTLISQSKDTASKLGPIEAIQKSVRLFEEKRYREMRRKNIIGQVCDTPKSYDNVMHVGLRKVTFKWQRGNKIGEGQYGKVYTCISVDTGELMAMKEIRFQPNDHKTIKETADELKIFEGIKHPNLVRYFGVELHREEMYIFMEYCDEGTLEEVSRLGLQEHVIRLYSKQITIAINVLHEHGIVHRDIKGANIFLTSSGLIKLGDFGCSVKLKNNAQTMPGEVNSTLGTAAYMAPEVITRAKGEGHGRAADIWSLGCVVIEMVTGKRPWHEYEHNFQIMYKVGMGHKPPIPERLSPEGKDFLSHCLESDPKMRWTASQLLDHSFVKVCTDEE

PDGFRA = molecular target: T8, PDGFRA (Homo sapiens, UniProt P16234); experiment: KINOMEscan scanEDGE; format: binding; conditions: 20 uM
T8 construct: purchased Eurofins DiscoverX (KINOMEscan; SAFETYscan E/IC50 ELECT)

PIK3CG = molecular target: T9, PIK3CG (Homo sapiens, UniProt P48736); experiment: KINOMEscan scanEDGE; format: binding; conditions: 20 uM
T9 construct: purchased Eurofins DiscoverX (KINOMEscan; SAFETYscan E/IC50 ELECT)

PRKCE = molecular target: T10, PRKCE (Homo sapiens, UniProt Q02156); experiment: KINOMEscan scanEDGE; format: binding; conditions: 20 uM
T10 construct: purchased Eurofins DiscoverX (KINOMEscan; SAFETYscan E/IC50 ELECT)

TSSK1B = molecular target: T11, TSSK1B (Homo sapiens, UniProt Q9BXA7); experiment: KINOMEscan scanEDGE; format: binding; conditions: 20 uM
T11 construct: purchased Eurofins DiscoverX (KINOMEscan; SAFETYscan E/IC50 ELECT)
T11 sequence (Q9BXA7 whole entry): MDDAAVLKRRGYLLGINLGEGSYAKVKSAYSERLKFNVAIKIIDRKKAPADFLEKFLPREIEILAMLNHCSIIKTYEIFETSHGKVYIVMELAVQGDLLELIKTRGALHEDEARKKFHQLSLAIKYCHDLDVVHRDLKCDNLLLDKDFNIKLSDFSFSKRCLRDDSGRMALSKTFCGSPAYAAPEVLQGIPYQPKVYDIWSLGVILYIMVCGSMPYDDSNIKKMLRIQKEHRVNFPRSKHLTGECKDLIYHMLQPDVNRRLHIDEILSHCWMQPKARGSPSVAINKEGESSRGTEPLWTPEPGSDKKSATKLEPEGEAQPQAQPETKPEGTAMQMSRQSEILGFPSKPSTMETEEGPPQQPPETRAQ

YANK3 = molecular target: T12, YANK3 (Homo sapiens, UniProt Q86UX6); experiment: KINOMEscan scanEDGE; format: binding; conditions: 20 uM
T12 construct: purchased Eurofins DiscoverX (KINOMEscan; SAFETYscan E/IC50 ELECT)
T12 sequence (Q86UX6 whole entry): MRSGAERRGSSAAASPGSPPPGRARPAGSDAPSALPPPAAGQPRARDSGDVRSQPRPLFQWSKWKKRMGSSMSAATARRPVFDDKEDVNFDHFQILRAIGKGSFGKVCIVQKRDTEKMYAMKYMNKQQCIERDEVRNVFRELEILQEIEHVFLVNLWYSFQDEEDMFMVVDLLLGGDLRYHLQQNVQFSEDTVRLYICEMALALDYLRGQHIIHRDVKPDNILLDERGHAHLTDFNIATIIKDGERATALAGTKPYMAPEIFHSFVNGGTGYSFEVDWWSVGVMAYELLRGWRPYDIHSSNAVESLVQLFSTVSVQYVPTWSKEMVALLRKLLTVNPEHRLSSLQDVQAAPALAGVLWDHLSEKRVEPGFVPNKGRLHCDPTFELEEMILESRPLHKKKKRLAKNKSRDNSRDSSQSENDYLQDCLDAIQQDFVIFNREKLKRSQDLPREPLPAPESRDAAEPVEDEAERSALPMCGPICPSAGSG

GABAA = experiment: SAFETYscan Ion Channel; format: cell-based; conditions: 10 uM
Description: The specificity of EDG-5506 for fast skeletal myosin over other, unrelated proteins was confirmed using two off-target binding and activity screens. […] A second off-target panel (SAFETYscan E/IC50 ELECT, Eurofins DiscoverX) tested in vitro enzyme activity against 78 proteins, including GPCR, ion channel, kinases, nuclear hormone receptors, and transporters. In all assays, the IC50 of EDG-5506 was more than 10 μM (Supplemental Data File 1).

O=c1ccc(-c2cnc(OCC(F)(F)F)nc2)nn1Cc1cncc(F)c1 [EDG-5506]
grip strength (WT or mdx mice): no effect
body or muscle weight (mdx mice; 8 weeks): no effect
diaphragm fibrosis (collagen, picrosirius red) (mdx mice; 8 weeks of treatment): decreased diaphragm fibrosis
average grip strength (mdx mice; after 5 weeks of dosing): increased average grip strength
improvement of average daily activity [1]: more than 30%
binding, % of control (ADCK3): 93 % of control
binding, % of control (BMPR2): 99 % of control
binding, % of control (CDK3): 100 % of control
binding, % of control (CDK7): 83 % of control
binding, % of control (FAK): 100 % of control
binding, % of control (JNK1): 72 % of control
binding, % of control (MAP3K4): 90 % of control
binding, % of control (PDGFRA): 100 % of control
binding, % of control (PIK3CG): 100 % of control
binding, % of control (PRKCE): 81 % of control
binding, % of control (TSSK1B): 97 % of control
binding, % of control (YANK3): 88 % of control
Max Response (%) (Agonist) (GABAA): 4.91%
Max Response (%) (Antagonist) (GABAA): 7.72%
